{"source": "patent US11357862B2", "about": "“Peptide-conjugated nanoparticles for targeting, imaging, and treatment of prostate cancer” (Academia Sinica, priority 2016, dated 2022)", "key": {"[1]": {"assay": "Pharmacokinetics of doxorubicin formulations", "type": "in vivo, NOD/SCID mice", "details": "2 mg doxorubicin/kg, tail vein", "experimental": "Blood samples were drawn at selected time points, and quantities of doxorubicin were analyzed."}, "[2]": {"tested_on": "PC3-Luc orthotopic tumors", "assay": "Orthotopic implantation and therapeutic study", "type": "in vivo, SCID mice", "details": "doxorubicin 1 mg/kg, vinorelbine 2 mg/kg i.v. twice a week, docetaxel 5 mg/kg i.p. once a week, 4 weeks", "protocol": "PC3 cells were transfected with Lenti-Luc virus (lentivirus containing the luciferase gene), and a stable PC3-Luc cell line was selected by puromycin screening. PC3-Luc cells (5×10^5 cells in 20 μl PBS per mouse) were orthotopically transplanted into the dorsal lobe of the prostate of SCID mice after anaesthesia with Avertin at a dose of 250 mg/kg. Seven days later, all mice bearing tumors were randomly divided into five groups (n=8 per group) based on photon flux indices detected using Xenogen IVIS® 200 Luminal Image. Tumor-bearing mice were treated with different formulations of anti-cancer drugs or PBS. Tumor development was recorded every 7 days. The body weights and survival rates were measured.\nMice were injected with vehicle (PBS), docetaxel (5 mg/kg), liposomal drugs, or targeting liposomal drugs (doxorubicin 1 mg/kg; vinorelbine 2 mg/kg)."}, "[3]": {"tested_on": "PC3 prostate cancer xenografts", "assay": "Immunohistochemical localization of phages after i.v. injection", "type": "in vivo, SCID mice", "details": "co-injected with PC204", "protocol": "(§1) SCID mice were injected s.c. with 5×10^6 prostate cancer cells. Once the prostate cancer xenografts reached a suitable size (about 200˜300 mm^3), the mice were injected i.v. with 2×10^9 pfu phages in the presence or absence of 100 μg synthetic peptides. After ten minutes, the mice were sacrificed and perfused with 50 ml PBS to remove unbound phages. Selected organs and xenograft tumors were removed, and the phage titer recovered by E. coli strain ER2738 was measured using IPTG/X-Gal spray. Partial organs and tumors were embedded using optimal cutting temperature compound (O.C.T.) to prepare sections for immunohistochemical staining.\nThe tissue samples from in vivo phage homing experiments were embedded in frozen blocks. Phage distribution in each tissue was assessed by first removing O.C.T. with cold PBS, and then fixing the frozen sections with 4% paraformaldehyde for 10 min. The sections were incubated with 1% BSA for 30 min to block non-specific binding. After washing, the sections were incubated with mouse anti-M13 antibodies at a dilution of 1:250 for 1 hour, followed by treatment with polymer-based SUPER SENSITIVE™ IC detection system. In brief, the sections were incubated with SUPER […]™ reagent for 20 min and poly-HRP reagent for 30 min. DAB was used as a chromogen to visualize peroxidase activity, and the reaction was stopped by the addition of PBS. […]"}, "[4]": {"tested_on": "PC3 prostate cancer xenografts", "assay": "In vivo phage homing and peptide competitive inhibition", "parameters": "species or system SCID mice", "details": "co-injection with PC204", "protocol": "as §1"}, "[5]": {"tested_on": "DU145 prostate cancer xenografts", "assay": "In vivo phage homing and peptide competitive inhibition", "parameters": "species or system SCID mice", "details": "co-injection with PC204", "protocol": "as §1"}}, "data": [{"compound": "COc1cccc2c1C(=O)c1c(O)c3c(c(O)c1C2=O)C[C@@](O)(C(=O)CO)C[C@@H]3O[C@H]1C[C@H](N)[C@H](O)[C@H](C)O1", "note": "[FD, doxorubicin]", "values": [{"measurement": "plasma pharmacokinetic profile of doxorubicin", "setting": "[1]", "result": "poor pharmacokinetic profile"}]}, {"compound": "CC(=O)O[C@@]12CO[C@@H]1C[C@H](O)[C@@]1(C)C(=O)[C@H](O)C3=C(C)[C@@H](OC(=O)[C@H](O)[C@@H](NC(=O)OC(C)(C)C)c4ccccc4)C[C@@](O)([C@@H](OC(=O)c4ccccc4)[C@H]21)C3(C)C", "note": "[docetaxel]", "values": [{"measurement": "median survival times", "setting": "[2]", "result": 58, "unit": "days"}]}, {"compound": "SP204: synthetic targeting peptide KQFSALPFNFYT, SEQ ID NO: 8, the ligand displayed on phage PC204 (Phage clone No. 204 displayed peptide sequence)", "values": [{"measurement": "phage immunoreactivity in tumor tissue on co-injection of PC204 with peptide", "setting": "[3]", "result": "no immunoreactivity was observed"}, {"measurement": "inhibition of PC204 binding to tumor tissue by co-injected peptide", "setting": "[4]", "result": 5.2, "unit": "fold"}, {"measurement": "inhibition of PC204 binding to tumor tissue by co-injected peptide", "setting": "[5]", "result": 2.87, "unit": "fold"}]}]}
